Source: BindingDB's records for patent US20250032625 (Merck Patent, 2025)

Target: T1, Transcriptional enhancer factor TEF-1 [209-426] (UniProt P28347)
T1 construct: 209-426
Test: Surface Plasmon Resonance (SPR) Assay
Procedure: The kinetic and affinity parameters of protein-exemplary compound interactions were evaluated by SPR. hsTEAD1 (209-426) was immobilized onto a CM7 (Series S) sensor chip via the standard amine coupling procedure, at 15° C. Prior to immobilization, the carboxymethylated surface of the chip was activated with 400 mM 1-ethyl-3-(3-dimethylaminopropyl)-carbodiimide and 100 mM N-hydroxysuccinimide for 10 min. hsTEAD1 (209-426) was diluted to 11 μg/mL in 10 mM Bis-Tris at pH 6.5 and immobilized on the activated surface chip for 8 and 10 min, in order to reach 6000 to 9000 response units (RU). The remaining activated carboxymethylated groups were blocked with a 7 min injection of 1 M ethanolamine pH 8.5 after which the surface chip was washed with 0.5% (w/v) sodium dodecyl sulphate and 50 mM glycine. HBS-N, which consists of 10 mM HEPES pH 7.4 and 150 mM NaCl, was used as the background buffer during immobilization. Exemplary compounds were prediluted in DMSO, diluted 1:50 in running buffer (20 mM Tris pH 7.4, 150 mM NaCl, 1 mM DTT, 5 mM MgCl2, 0.1 mM EGTA, 0.05% CHAPS) and injected at ten different concentrations using two-fold dilution series, from 100 μM to 0.2 μM. A DMSO solvent correction (1%-3%) was performed to account for variations in bulk signal and to achieve high-quality data. […]

T1 sequence (P28347 209-426): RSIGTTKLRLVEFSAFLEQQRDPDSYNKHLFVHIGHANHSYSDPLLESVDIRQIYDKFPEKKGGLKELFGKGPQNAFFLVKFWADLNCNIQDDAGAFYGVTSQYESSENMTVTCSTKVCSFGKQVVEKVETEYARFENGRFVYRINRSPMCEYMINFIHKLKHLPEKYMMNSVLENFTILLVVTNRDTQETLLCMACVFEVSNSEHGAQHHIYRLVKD

Kd: 3.01 µM
Compound: Cn1cc2c3cc(C(=O)NCCOCCOCCOCCOCCOc4cccc5c4C(=O)N(C4CCC(=O)NC4=O)C5=O)ccc3n(-c3ccc(C(F)(F)F)cc3)c2n1 (stereo unspecified) [US20250032625, Compound 16]
